Data taken from patent US8431395B2, “Pluripotent cells from rat and other species” (The University Court of the University of Edinburgh, priority 2006, dated 2013).

Columns and labels:
mouse ES cells = test: Culture of pluripotent (ES) cells with inhibitors to promote self renewal; type: cell-based
Source text: Mix DMEM/F12-N2 medium with Neurobasal/B27 medium at the ration of 1:1. The media was used to dilute all compounds and grow the cells.

GSK3 = conditions: cited from earlier work
3i rat cells = test: Maintenance of undifferentiated rat 3i cells under altered culture conditions; type: cell-based
Source text: We investigated the effect of altering the culture conditions on maintenance of the undifferentiated state. […] LIF is not included in culture medium, consistent with the sufficiency of 3i for mouse ES cells. Rat cells transferred from 3i to medium supplemented with serum and LIF or BMP and LIF differentiated into various morphologies and lost expression of Oct4 and Nanog (FIG. 13a). These observations indicate that the 3i rat cells have reduced responsiveness to gp130/Stat3 signalling compared with mouse ES cells^20, 21. This may be a significant contributory factor to previous failures to derive rat ES cells.
Cells cultured without inhibitors differentiated into various morphologies (FIG. 13b). […] These findings are consistent with the hypothesis that blockade of FGF/Erk signaling is the critical requirement to sustain the naïve pluripotent state (Ying et al., submitted).
Recently the derivation of cell lines from post-implantation egg cylinder stage epiblast has been reported in mice and rats^3, 10. […] In contrast the 3i rat cells do contribute to chimaeras. They also express Rex1, Stella (Dppa3) and alkaline phosphatase, markers of ES cells and early epiblast that are absent in EpiSCs. Furthermore 3i rat cells can readily be propagated after dissociation into single cells whereas maintained cell-cell contact appears critical for EpiSCs. […]

Compound | results as GSK3 inhibitor in culture of pluripotent cells (mouse ES cells) | specificity (GSK3) | fold lower concentration at which fully effective as substitute for SU5402 (mouse ES cells; relative to SU5402) | maintenance / propagation of undifferentiated rat cells (3i rat cells)
Cc1c[nH]c(-c2cnc(NCCNc3ccc(C#N)cn3)nc2-c2ccc(Cl)cc2Cl)n1 [CHIR 99021] | Good results | specific for GSK3 | – | –
CCN(CC)CCCCNc1ncc2cc(-c3cc(OC)cc(OC)c3)c(NC(=O)NC(C)(C)C)nc2n1 [PD173074] | – | – | about 100 fold | –
NC(=O)c1ccc(-c2nc(-c3ccccn3)c(-c3ccc4c(c3)OCO4)[nH]2)cc1 [SB431452] | – | – | – | did not impede propagation
CHIR 98014 | Good results | specific for GSK3 | – | –
